From ChEMBL document CHEMBL6071146, “Synthesis and identification of a selective FGFR2 degrader with potent antiproliferative effects in gastric cancer” (Eur J Med Chem, 2024)
The source made the active and inactive calls. The rule behind the calls is not given here.

What was measured:
[1] = Antiproliferative activity against human KATO III cells incubated for 72 hrs by MTT assay
SNU-16 [2] = test: Antiproliferative activity against human SNU-16 cells incubated for 72 hrs by MTT assay; conditions: SNU-16, 72 h
KATO III [3] = test: Induction of cell cycle arrest at G0/G1 phase in human KATO III cells assessed as reduction in Cyclin E level at 500 to 1000 nM incubated for 24 hrs by Western blot analysis; type: functional, cell-based; conditions: dose 500-1000 nM
BaF3 [4] = test: Antiproliferative activity against mouse BaF3 cells stably expressing TEL-FGFR3 incubated for 72 hrs bby CellTiter-Glo assay; conditions: BaF3, 72 h
SNU-16 [5] = test: Antitumor activity against human SNU-16 cells xenografted in BALB/c mouse assessed as tumor growth suppression at 10 to 20 mg/kg, ip qd for 25 days; type: functional, organism-based; conditions: dose 10-20 mg/kg, time 25.0 day
cells [6] = conditions: Homo sapiens, KATO III, 24 h, read-out: Activity
Description: Induction of apoptosis in human KATO III cells assessed as viable cells at 1000 nM incubated for 24 hrs by Annexin V-FITC/PI staining based flow cytometry (Rvb = 87.00 %)

[7] = Toxicity in BALB/c mouse xenografted with human SNU-16 cells assessed as damage in heart at 10 to 20 mg/kg, ip qd for 25 days by H and E staining based analysis; type: organism-based; conditions: in vivo, 600 h, dose 10-20 mg/kg, time 25 day
SNU-16 [8] = test: Induction of cell cycle arrest at G0/G1 phase in human SNU-16 cells assessed as increase in p21 level at 500 to 1000 nM incubated for 24 hrs by Western blot analysis; type: functional, cell-based; conditions: dose 500-1000 nM
KATO III [9] = test: Induction of cell cycle arrest at G0/G1 phase in human KATO III cells assessed as reduction in CDK4 level at 500 to 1000 nM incubated for 24 hrs by Western blot analysis; type: functional, cell-based; conditions: dose 500-1000 nM
Homo sapiens = species on record: Homo sapiens; test: Induction of VEGFR2 (unknown origin) degradation
[10] = Volume of distribution at steady state in Sprague-Dawley rat at 2 mg/kg, iv measured for 24 hrs by LC-MS/MS analysis; type: ADME, organism-based; conditions: in vivo, read-out: Vdss
[11] = Toxicity in BALB/c mouse xenografted with human SNU-16 cells assessed as damage in kidney at 10 to 20 mg/kg, ip qd for 25 days by H and E staining based analysis; type: organism-based; conditions: in vivo, 600 h, dose 10-20 mg/kg, time 25 day
[12] = Apparent volume of distribution during terminal phase in Sprague-Dawley rat at 5 mg/kg, ip measured for 24 hrs by LC-MS/MS analysis; type: ADME, organism-based; conditions: in vivo, read-out: Vz/F
[13] = Toxicity in BALB/c mouse xenografted with human SNU-16 cells assessed as damage in lung at 10 to 20 mg/kg, ip qd for 25 days by H and E staining based analysis; type: organism-based; conditions: in vivo, 600 h, dose 10-20 mg/kg, time 25 day
[14] = AUC (infinity) in Sprague-Dawley rat at 5 mg/kg, ip measured for 24 hrs by LC-MS/MS analysis; type: ADME, organism-based; conditions: in vivo
[15] = Toxicity in BALB/c mouse xenografted with human SNU-16 cells assessed as damage in liver at 10 to 20 mg/kg, ip qd for 25 days by H and E staining based analysis; type: organism-based; conditions: in vivo, 600 h, dose 10-20 mg/kg, time 25 day
[16] = MRT (infinity) in Sprague-Dawley rat at 5 mg/kg, ip measured for 24 hrs by LC-MS/MS analysis; type: ADME, organism-based; conditions: in vivo
KATO III [17] = test: Induction of cell cycle arrest at G0/G1 phase in human KATO III cells assessed as reduction in CDK2 level at 500 to 1000 nM incubated for 24 hrs by Western blot analysis; type: functional, cell-based; conditions: dose 500-1000 nM
[18] = Half life in Sprague-Dawley rat at 5 mg/kg, ip measured for 24 hrs by LC-MS/MS analysis; type: ADME, organism-based; conditions: in vivo
[19] = AUC (0 to t) in Sprague-Dawley rat at 5 mg/kg, ip measured for 24 hrs by LC-MS/MS analysis; type: ADME, organism-based; conditions: in vivo
BaF3 [20] = test: Antiproliferative activity against mouse BaF3 cells stably expressing TEL-FGFR2 incubated for 72 hrs bby CellTiter-Glo assay; conditions: BaF3, 72 h
[21] = Toxicity in BALB/c mouse xenografted with human SNU-16 cells assessed as drug tolerance at 10 to 20 mg/kg, ip qd for 25 days; type: organism-based; conditions: in vivo, 600 h, dose 10-20 mg/kg, time 25 day
SNU-16 [22] = test: Antitumor activity against human SNU-16 cells xenografted in BALB/c mouse at 20 mg/kg, ip qd for 25 days relative to control; conditions: SNU-16, 600 h, read-out: TGI
[23] = Clearance in Sprague-Dawley rat at 2 mg/kg, iv measured for 24 hrs by LC-MS/MS analysis; type: ADME, organism-based; conditions: in vivo
cells [24] = conditions: Homo sapiens, KATO III, 24 h, read-out: Activity; remark: listed apart in the source
Description: Induction of apoptosis in human KATO III cells assessed as viable cells at 500 nM incubated for 24 hrs by Annexin V-FITC/PI staining based flow cytometry (Rvb = 87.00 %)

[25] = Tmax in Sprague-Dawley rat at 5 mg/kg, ip measured for 24 hrs by LC-MS/MS analysis; type: ADME, organism-based; conditions: in vivo
[26] = AUC (infinity) in Sprague-Dawley rat at 2 mg/kg, iv measured for 24 hrs by LC-MS/MS analysis; type: ADME, organism-based; conditions: in vivo
[27] = Cmax in Sprague-Dawley rat at 5 mg/kg, ip measured for 24 hrs by LC-MS/MS analysis; type: ADME, organism-based; conditions: in vivo
[28] = Apparent oral clearance in Sprague-Dawley rat at 5 mg/kg, ip measured for 24 hrs by LC-MS/MS analysis; type: ADME, organism-based; conditions: in vivo
BaF3 [29] = test: Antiproliferative activity against mouse BaF3 cells stably expressing TEL-FGFR1 incubated for 72 hrs bby CellTiter-Glo assay; conditions: BaF3, 72 h
KATO III [30] = test: Induction of cell cycle arrest at G0/G1 phase in human KATO III cells assessed as reduction in Cyclin D1 level at 500 to 1000 nM incubated for 24 hrs by Western blot analysis; type: functional, cell-based; conditions: dose 500-1000 nM
[31] = AUC (0 to t) in Sprague-Dawley rat at 2 mg/kg, iv measured for 24 hrs by LC-MS/MS analysis; type: ADME, organism-based; conditions: in vivo
BaF3 [32] = test: Antiproliferative activity against mouse BaF3 cells stably expressing TEL-FGFR4 incubated for 72 hrs bby CellTiter-Glo assay; conditions: BaF3, 72 h
[33] = Toxicity in BALB/c mouse xenografted with human SNU-16 cells assessed as weight loss at 10 to 20 mg/kg, ip qd for 25 days; type: organism-based; conditions: in vivo, 600 h, dose 10-20 mg/kg, time 25 day
SNU-16 [34] = test: cells; conditions: Homo sapiens, SNU-16, 24 h, read-out: Activity
Description: Induction of apoptosis in human SNU-16 cells assessed as viable cells at 500 nM incubated for 24 hrs by Annexin V-FITC/PI staining based flow cytometry (Rvb = 77.12 %)

SNU-16 [35] = test: Antitumor activity against human SNU-16 cells xenografted in BALB/c mouse assessed as decrease in tumor weight at 10 to 20 mg/kg, ip qd for 25 days; type: functional, organism-based; conditions: dose 10-20 mg/kg, time 25.0 day
KATO III [36] = test: Induction of apoptosis in human KATO III cells assessed as increase in cleaved caspase-3 level at 0.5 to 1 uM incubated for 24 hrs by Western blot analysis; type: functional, cell-based; conditions: dose 0.5-1 µM
SNU-16 [37] = test: Antitumor activity against human SNU-16 cells xenografted in BALB/c mouse assessed as decrease in tumor size at 10 to 20 mg/kg, ip qd for 25 days; type: functional, organism-based; conditions: dose 10-20 mg/kg, time 25.0 day
[38] = Toxicity in BALB/c mouse xenografted with human SNU-16 cells assessed as obvious side effect at 10 to 20 mg/kg, ip qd for 25 days; type: organism-based; conditions: in vivo, 600 h, dose 10-20 mg/kg, time 25 day
[39] = Oral bioavailability in Sprague-Dawley rat at 5 mg/kg measured for 24 hrs by LC-MS/MS analysis; type: ADME, organism-based; conditions: in vivo
[40] = Toxicity in BALB/c mouse xenografted with human SNU-16 cells assessed as damage in spleen at 10 to 20 mg/kg, ip qd for 25 days by H and E staining based analysis; type: organism-based; conditions: in vivo, 600 h, dose 10-20 mg/kg, time 25 day
KATO III [41] = test: Induction of cell cycle arrest at G0/G1 phase in human KATO III cells assessed as increase in p21 level at 500 to 1000 nM incubated for 24 hrs by Western blot analysis; type: functional, cell-based; conditions: dose 500-1000 nM
[42] = Half life in Sprague-Dawley rat at 2 mg/kg, iv measured for 24 hrs by LC-MS/MS analysis; type: ADME, organism-based; conditions: in vivo
SNU-16 [43] = test: cells; conditions: Homo sapiens, SNU-16, 24 h, read-out: Activity; remark: listed apart in the source
Description: Induction of apoptosis in human SNU-16 cells assessed as viable cells at 1000 nM incubated for 24 hrs by Annexin V-FITC/PI staining based flow cytometry (Rvb = 77.12 %)

SNU-16 [44] = test: Induction of apoptosis in human SNU-16 cells assessed as increase in cleaved caspase-3 level at 0.5 to 1 uM incubated for 24 hrs by Western blot analysis; type: functional, cell-based; conditions: dose 0.5-1 µM
[45] = MRT (infinity) in Sprague-Dawley rat at 2 mg/kg, iv measured for 24 hrs by LC-MS/MS analysis; type: ADME, organism-based; conditions: in vivo

COc1cc(OC)cc(N(CCNC(C)C)c2ccc3ncc(-c4cnn(CCCC(=O)NCCNc5cccc6c5C(=O)N(C5CCC(=O)NC5=O)C6=O)c4)nc3c2)c1 (configuration not stated)
IC50 [1]: 0.172 µM | IC50 (SNU-16 [2]): 0.234 µM

COc1cc(OC)cc(N(CCNC(C)C)c2ccc3ncc(-c4cnn(CC(=O)NCC(=O)NCCNc5cccc6c5C(=O)N(C5CCC(=O)NC5=O)C6=O)c4)nc3c2)c1 (configuration not stated)
IC50 [1]: 0.523 µM | IC50 (SNU-16 [2]): 0.065 µM

COc1cc(OC)cc(N(CCNC(C)C)c2ccc3ncc(-c4cnn(CCCCCCCCC(=O)NCCNc5cccc6c5C(=O)N(C5CCC(=O)NC5=O)C6=O)c4)nc3c2)c1 (configuration not stated)
IC50 [1]: < 0.00017 µM | IC50 (SNU-16 [2]): < 0.00017 µM

COc1cc(OC)cc(N(CCNC(C)C)c2ccc3ncc(-c4cnn(CCCCCCC(=O)NCCNc5cccc6c5C(=O)N(C5CCC(=O)NC5=O)C6=O)c4)nc3c2)c1 (configuration not stated)
Activity (KATO III [3]): Active | IC50 (BaF3 [4]): 0.0971 µM | Activity (SNU-16 [5]): Active | viability at 1 µM (cells [6]): 65% | Activity [7]: Non-Toxic | IC50 [1]: < 0.00017 µM | Activity (SNU-16 [8]): Active | Activity (KATO III [9]): Active | Activity (Homo sapiens): inactive | Vd [10]: 7.58 L/kg | Activity [11]: Non-Toxic | Vd/F [12]: 51.4 L/kg | Activity [13]: Non-Toxic | AUC(0-inf) [14]: 1070 ng·h/mL | Activity [15]: Non-Toxic | MRT inf [16]: 6.53 h | Activity (KATO III [17]): Active | IC50 (SNU-16 [2]): < 0.00017 µM | half-life [18]: 7.59 h | AUC(0-t) at 24 h [19]: 991 ng·h/mL | IC50 (BaF3 [20]): 0.0227 µM | Activity [21]: Non-Toxic | inhibition in vivo at 20 mg/kg (SNU-16 [22]): 117% | clearance [23]: 59.3 mL/min/kg | viability at 0.5 µM (cells [24]): 66.8% | Tmax [25]: 0.25 h | AUC(0-inf) [26]: 570 ng·h/mL | Cmax [27]: 302 ng/mL | CL/F [28]: 78.2 mL/min/kg | IC50 (BaF3 [29]): 0.138 µM | Activity (KATO III [30]): Active | AUC(0-t) at 24 h [31]: 544 ng·h/mL | IC50 (BaF3 [32]): 0.332 µM | Activity [33]: Non-Toxic | viability at 0.5 µM (SNU-16 [34]): 45.6% | Activity (SNU-16 [35]): Active | Activity (KATO III [36]): Active | Activity (SNU-16 [37]): Active | Activity [38]: Non-Toxic | bioavailability [39]: 74.8% | Activity [40]: Non-Toxic | Activity (KATO III [41]): Active | half-life [42]: 4.65 h | viability at 1 µM (SNU-16 [43]): 42.7% | Activity (SNU-16 [44]): Active | MRT inf [45]: 2.27 h

COc1cc(OC)cc(N(CCNC(C)C)c2ccc3ncc(-c4cnn(C)c4)nc3c2)c1 [ERDAFITINIB]
viability at 1 µM (cells [6]): 69.1% | IC50 [1]: 0.004 µM | IC50 (SNU-16 [2]): 0.001 µM | inhibition in vivo at 20 mg/kg (SNU-16 [22]): 104% | viability at 0.5 µM (cells [24]): 70.7% | viability at 0.5 µM (SNU-16 [34]): 49.9% | viability at 1 µM (SNU-16 [43]): 47.8%

COc1cc(OC)cc(N(CCNC(C)C)c2ccc3ncc(-c4cnn(CCCCCCC(=O)NCC(=O)NCCNc5cccc6c5C(=O)N(C5CCC(=O)NC5=O)C6=O)c4)nc3c2)c1 (configuration not stated)
IC50 [1]: 0.001 µM | IC50 (SNU-16 [2]): 0.001 µM

COc1cc(OC)cc(N(CCNC(C)C)c2ccc3ncc(-c4cnn(CCCC(=O)NCC(=O)NCCNc5cccc6c5C(=O)N(C5CCC(=O)NC5=O)C6=O)c4)nc3c2)c1 (configuration not stated)
IC50 [1]: 0.002 µM | IC50 (SNU-16 [2]): 0.022 µM

COc1cc(OC)cc(N(CCNC(C)C)c2ccc3ncc(-c4cnn(CCCCCC(=O)NCC(=O)NCCNc5cccc6c5C(=O)N(C5CCC(=O)NC5=O)C6=O)c4)nc3c2)c1 (configuration not stated)
IC50 [1]: 0.595 µM | IC50 (SNU-16 [2]): 0.001 µM

COc1cc(OC)cc(N(CCNC(C)C)c2ccc3ncc(-c4cnn(CCOCCOCCOCCOCC(=O)NCCNc5cccc6c5C(=O)N(C5CCC(=O)NC5=O)C6=O)c4)nc3c2)c1 (configuration not stated)
IC50 [1]: 0.158 µM | IC50 (SNU-16 [2]): 0.01 µM
